The source made the active and inactive calls. The rule behind the calls is not given here.
Experiments:
[1] = system: H4; test: (§1) Antioxidant activity in H2O2-induced human H4 cells assessed as reduction in ROS generation ratio preincubated with H2O2 for 3 hrs followed by DCFH-DA addition for 30 mins and further incubated with compound and measured after 30 mins by DCFH-DA dye based fluorescence microplate reader analysis; type: functional, cell-based; conditions: dose 3-10 µM
[2] = system: H4; test: Antioxidant activity in H2O2-induced human H4 cells assessed as reduction in exogenous ROS level by measuring dark green fluorescence preincubated with H2O2 for 3 hrs followed by compound addition and measured after 30 mins by flow cytometric analysis; type: functional, cell-based
[3] = system: H4; test: Antioxidant activity in H2O2-induced human H4 cells assessed as reduction in endogenous ROS level by measuring green fluorescence preincubated with H2O2 for 3 hrs followed by compound addition and measured after 30 mins by flow cytometric analysis; type: functional, cell-based
[4] = Cytotoxicity against human H4 cells assessed as cell viability at 100 uM incubated for 48 hrs by CCK-8 assay relative to control; type: toxicity, cell-based; conditions: read-out: Activity
[5] = Cytotoxicity against human SH-SY5Y cells assessed as cell viability at 100 uM incubated for 48 hrs by CCK-8 assay relative to control; type: toxicity, cell-based; conditions: read-out: Activity
[6] = system: Mus musculus; test: Neuroprotective activity against 6-OHDA-induced lesioned C57 mouse model of Parkinson's disease assessed as protection of dopaminergic neuronal damage administered via right striatum and measured after 21 days; type: functional, organism-based; conditions: time 21.0 day
[7] = system: H4; test: as §1, with “as” for “as reduction in”, “scavenging at 10 uM” for “generation ratio”, “analysis relative to control” for “analysis”; type: functional; conditions: 0.5 h
[8] = system: Mus musculus; test: Neuroprotective activity against 6-OHDA-induced lesioned C57 mouse model of Parkinson's disease assessed as reduction of dopaminergic neuronal damage at 2.7 ug administered via right striatum and measured after 21 days; type: functional, organism-based; conditions: dose 2.7 µg, time 21.0 day
[9] = system: Mus musculus; test: Neuroprotective activity against 6-OHDA-induced lesioned C57 mouse model of Parkinson's disease assessed as reduction in weight loss administered via right striatum and measured after 14 days; type: functional, organism-based; conditions: time 14.0 day
[10] = system: Mus musculus; test: Neuroprotective activity against 6-OHDA-induced lesioned C57 mouse model of Parkinson's disease assessed as reduction in apomorphine-induced contralateral rotation by measuring decrease in turn number preadministered with compound for 14 days via right striatum and measured 30 mins after apomorphine addition by videotaping analysis relative to control; type: functional; parameters: scale not given: the % may be the effect or the level left; conditions: time 336.5 hrs
[11] = Toxicity in C57 mouse assessed as effect on time spend in rod administered via right striatum and measured after 14 days by rotarod test; conditions: in vivo, other, 336 h, time 14 day
[12] = system: Mus musculus; test: Neuroprotective activity against 6-OHDA-induced lesioned C57 mouse model of Parkinson's disease assessed as improvement of weakened grip administered via right striatum and measured after 14 days by rotarod test; type: functional, organism-based; conditions: time 14.0 day
[13] = system: Mus musculus; test: Neuroprotective activity against 6-OHDA-induced lesioned C57 mouse model of Parkinson's disease assessed as improvement of stiff limbs administered via right striatum and measured after 14 days by rotarod test; type: functional, organism-based; conditions: time 14.0 day
[14] = system: Mus musculus; test: Neuroprotective activity against 6-OHDA-induced lesioned C57 mouse model of Parkinson's disease assessed as improvement of poor balance administered via right striatum and measured after 14 days by rotarod test; type: functional, organism-based; conditions: time 14.0 day
[15] = system: Mus musculus; test: Neuroprotective activity against 6-OHDA-induced lesioned C57 mouse model of Parkinson's disease assessed as reduction in ipsilateral dopaminergic neuron damage in caudate putamen nucleus of brain administered via right striatum and measured after 21 days by immunofluorescence staining analysis; type: functional, organism-based; conditions: time 21.0 day
[16] = system: Mus musculus; test: (§2) Neuroprotective activity against 6-OHDA-induced lesioned C57 mouse model of Parkinson's disease assessed as increase in survival of ipsilateral dopaminergic neuron in caudate putamen nucleus of brain by measuring tyrosine hydroxylase fluorescence intensity administered via right striatum and measured after 21 days by immunofluorescence staining analysis (reference value: 11.5 %); type: functional; conditions: time 21 day
[17] = system: Mus musculus; test: as §2, with “substantia nigra pars reticulate” for “caudate putamen nucleus”, “9.7” for “11.5”; type: functional; conditions: time 21 day
[18] = Toxicity in C57 mouse assessed as effect on survival of ipsilateral dopaminergic neuron in substantia nigra pars reticulate of brain administered via right striatum and measured after 21 days by immunofluorescence staining analysis; conditions: in vivo, other, 504 h, time 21 day
[19] = Toxicity in C57 mouse assessed as effect on survival of ipsilateral dopaminergic neuron in caudate putamen nucleus of brain administered via right striatum and measured after 21 days by immunofluorescence staining analysis; conditions: in vivo, other, 504 h, time 21 day

O=C(/C=C/c1cc(O)ccc1O)Nc1ccc(NC(=O)c2ccc(F)cc2F)cc1
Activity [1]: Dose-Dependent Effect
Activity [2]: Active
Activity [3]: Active
viability at 48 h, 100 µM [4]: > 85%
viability at 48 h, 100 µM [5]: > 85%

O=C(/C=C/c1cc(O)ccc1O)Nc1ccc(NC(=O)/C=C/c2cc(O)ccc2O)cc1
Activity [6]: Dose-Dependent Effect
Activity [1]: Dose-Dependent Effect
Activity [7]: 70%
viability at 48 h, 100 µM [4]: > 85%
viability at 48 h, 100 µM [5]: > 85%
Activity [8]: Active
Activity [9]: Active
Activity [10]: 87%
Time [11]: 264 s
Activity [12]: Active
Activity [13]: Active
Activity [14]: Active
Activity [15]: Active
Flu intensity [16]: 66.2%
Flu intensity [17]: 65.1%
Activity [18]: Non-Toxic
Activity [19]: Non-Toxic

O=C1C=CC(=O)C(/C=C/C(=O)Nc2ccc(NC(=O)c3ccc(F)c(F)c3)cc2)=C1
Activity [1]: Dose-Dependent Effect
viability at 48 h, 100 µM [4]: > 85%
viability at 48 h, 100 µM [5]: > 85%

O=C(/C=C/c1cc(O)ccc1O)Nc1ccc(NC(=O)c2ccc(O)cc2)cc1
Activity [1]: Dose-Dependent Effect
Activity [7]: 70%
viability at 48 h, 100 µM [4]: > 85%
viability at 48 h, 100 µM [5]: > 85%

O=C1C=CC(=O)C(/C=C/C(=O)Nc2ccc(NC(=O)c3ccc(F)cc3)cc2)=C1
Activity [1]: Dose-Dependent Effect
Activity [7]: 70%
viability at 48 h, 100 µM [4]: > 85%
viability at 48 h, 100 µM [5]: > 85%

O=C(/C=C/c1ccc(O)c(O)c1)Nc1ccc(NC(=O)c2ccc(F)cc2)cc1
Activity [1]: Dose-Dependent Effect
Activity [7]: 70%

O=C1C=CC(=O)C(/C=C/C(=O)Nc2ccc(NC(=O)c3ccc(F)cc3F)cc2)=C1
Activity [1]: Dose-Dependent Effect
Activity [2]: Active
Activity [3]: Active
viability at 48 h, 100 µM [4]: > 85%
viability at 48 h, 100 µM [5]: > 85%

Reference: ChEMBL document CHEMBL5346876, “Hybrids of polyphenolic/quinone acids, the potential preventive and therapeutic drugs for PD: Disaggregate α-Syn fibrils, inhibit inclusions, and repair damaged neurons in mice” (Eur J Med Chem, 2023)
